Test results as given in US8580809B2, “Filamin A-binding anti-inflammatory analgesic” (Pain Therapeutics, Inc., priority 2009, dated 2013).

These molecules were tested against T1, mu opiate receptor (MOR) (Rattus norvegicus, UniProt P33535) (assay: MOR agonist activity using [35S]GTPγS binding assay in striatal membranes). Conditions: 0.1 μM compound, striatal membranes.
T1 construct: from tissue; host or cells: rat striatal membrane preparation
Type: biochemical
Protocol: To assess the mu opiate receptor (MOR) agonist activity of positive compounds from the FLNA screening, compounds were tested in a [^35S]GTPγS binding assay using striatal membranes.
Striatal tissue was homogenized in 10 volumes of ice cold 25 mM HEPES buffer, pH 7.4, which contained 1 mM EGTA, 100 mM sucrose, 50 μg/ml leupeptin, 0.04 mM PMSF, 2 μg/ml soybean trypsin inhibitor and 0.2% 2-mercaptoethanol. The homogenates were centrifuged at 800×g for 5 minutes and the supernatants were centrifuged at 49,000×g for 20 minutes.
The resultant striatal membrane preparation (200 μg) was admixed and maintained (incubated) at 30° C. for 5 minutes in reaction buffer as above that additionally contained 1 mM MgCl2 and 0.5 nM [^35S]GTPγS (0.1 μCi/assay, PerkinElmer Life and Analytical Sciences) in a total volume of 250 μl and continued for 5 minutes in the absence or presence of 0.1-10 μM of an assayed compound of interest. The reaction was terminated by dilution with 750 μl of ice-cold reaction buffer that contained 20 mM MgCl2 and 1 mM EGTA and immediate centrifugation at 16,000×g for 5 minutes.
The resulting pellet was solubilized by sonicating for 10 seconds in 0.5 ml of immunoprecipitation buffer containing 0.5% digitonin, 0.2% sodium cholate and 0.5% NP-40. Normal rabbit serum (1 μl) was added to 1 ml of lysate and incubated at 25° C. for 30 minutes. Nonspecific immune complexes were removed by incubation with 25 μl of protein A/G-conjugated agarose beads at 25° C. for 30 minutes followed by centrifugation at 5,000×g at 4° C. for 5 minutes. The supernatant was divided and separately incubated at 25° C. for 30 minutes with antibodies raised against Gαo proteins (1:1,000 dilutions).
The immunocomplexes so formed were collected by incubation at 25° C. for 30 minutes with 40 μl of agarose-conjugated protein A/G beads and centrifugation at 5,000×g at 4° C. for 5 minutes. The pellet was washed and suspended in buffer containing 50 mM Tris-HCl, pH 8.0, and 1% NP-40. The radioactivity in the suspension was determined by liquid scintillation spectrometry. […] DAMGO (H-Tyr-D-Ala-Gly-N-MePhe-Gly-OH; 1 or 10 μM) was used as a positive control.

T1 sequence (P33535 whole entry): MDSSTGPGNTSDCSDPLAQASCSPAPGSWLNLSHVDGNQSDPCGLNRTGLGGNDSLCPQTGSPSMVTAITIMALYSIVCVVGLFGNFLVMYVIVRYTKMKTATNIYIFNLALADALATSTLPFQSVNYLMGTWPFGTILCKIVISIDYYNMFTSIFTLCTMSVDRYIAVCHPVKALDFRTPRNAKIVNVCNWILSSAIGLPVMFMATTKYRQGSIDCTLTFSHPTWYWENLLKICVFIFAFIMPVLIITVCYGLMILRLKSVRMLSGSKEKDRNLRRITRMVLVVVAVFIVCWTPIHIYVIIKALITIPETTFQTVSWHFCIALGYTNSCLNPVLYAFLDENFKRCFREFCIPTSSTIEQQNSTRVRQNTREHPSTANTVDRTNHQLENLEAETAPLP

In order of falling “MOR agonist activity, [35S]GTPγS binding to Gαo, FLNA-binding compound as agonist 0.1 μM” value:
1. O=S(=O)(c1ccc(Br)cc1)N1CCC2(CC1)OCCN2S(=O)(=O)c1ccc(Br)cc1 [Compound C0025]  235.7%
2. COc1ccc(S(=O)(=O)N2CCC3(CC2)OCCN3S(=O)(=O)c2ccc(C(C)=O)cc2)cc1 [Compound C0048]  209.1%
3. COc1ccc(C(=O)N2CCC3(CC2)OCCN3S(=O)(=O)c2ccc(OC)cc2)cc1 [Compound C0018]  195.5%
4. COc1ccc(NC(=O)N2CCC3(CC2)OCCN3S(=O)(=O)c2ccc(OC)cc2)cc1 [Compound C0041]  186.1%
5. CNc1ccc(S(=O)(=O)N2CCC3(CC2)OCCN3S(=O)(=O)c2ccc(NC)cc2)cc1 [Compound C0024]  178.4%
6. O=S(=O)(c1ccc(F)cc1)N1CCC2(CC1)OCCN2S(=O)(=O)c1ccc(F)cc1 [Compound C0029]  175.4%
7. O=S(=O)(c1ccccc1)N1CCC2(CC1)OCCN2S(=O)(=O)c1ccccc1 [Compound C0016]  172.7%
8. O=C(OCc1ccccc1)c1ccc(S(=O)(=O)N2CCC3(CC2)OCCN3S(=O)(=O)c2ccc(C(=O)OCc3ccccc3)cc2)cc1 [Compound C0042]  167.1%
9. COc1ccc(C(=O)N2CCC3(CC2)OCCN3C(=O)c2ccc(OC)cc2)cc1 [Compound C0017]  153.8%
10. CCCCc1ccc(S(=O)(=O)N2CCC3(CC2)OCCN3S(=O)(=O)c2ccc(CCCC)cc2)cc1 [Compound C0030]  150.3%
11. O=C(c1ccc([N+](=O)[O-])cc1)N1CCC2(CC1)OCCN2C(=O)c1ccc([N+](=O)[O-])cc1 [Compound C0032]  145.4%
12. COc1ccc(C(=O)N2CCOC23CCN(S(=O)(=O)c2ccc(OC)cc2)CC3)cc1 [Compound C0019]  104.4%
13. NS(=O)(=O)c1ccc(S(=O)(=O)N2CCC3(CC2)OCCN3S(=O)(=O)c2ccc(S(N)(=O)=O)cc2)cc1 [Compound C0034]  103.6%
14. COC(=O)c1ccc(S(=O)(=O)N2CCC3(CC2)OCCN3S(=O)(=O)c2ccc(C(=O)OC)cc2)cc1 [Compound C0028]  93.9%

Same assay, conditions: 1 μM compound + 1 μM β-funaltrexamine

In order of falling “MOR agonist activity, [35S]GTPγS binding to Gαo, 1 μM + BFNA” value:
1. O=C(OCc1ccccc1)c1ccc(S(=O)(=O)N2CCC3(CC2)OCCN3S(=O)(=O)c2ccc(C(=O)OCc3ccccc3)cc2)cc1 [Compound C0042]  110.6%
2. COc1ccc(C(=O)N2CCC3(CC2)OCCN3S(=O)(=O)c2ccc(OC)cc2)cc1 [Compound C0018]  106.5%
3. O=S(=O)(c1ccccc1)N1CCC2(CC1)OCCN2S(=O)(=O)c1ccccc1 [Compound C0016]  96.7%
4. COc1ccc(NC(=O)N2CCC3(CC2)OCCN3S(=O)(=O)c2ccc(OC)cc2)cc1 [Compound C0041]  95.5%
5. CCCCc1ccc(S(=O)(=O)N2CCC3(CC2)OCCN3S(=O)(=O)c2ccc(CCCC)cc2)cc1 [Compound C0030]  95.0%
6. COc1ccc(C(=O)N2CCC3(CC2)OCCN3C(=O)c2ccc(OC)cc2)cc1 [Compound C0017]  94.1%
7. COc1ccc(S(=O)(=O)N2CCC3(CC2)OCCN3S(=O)(=O)c2ccc(C(C)=O)cc2)cc1 [Compound C0048]  89.9%
8. O=C(c1ccc([N+](=O)[O-])cc1)N1CCC2(CC1)OCCN2C(=O)c1ccc([N+](=O)[O-])cc1 [Compound C0032]  80.9%
9. O=S(=O)(c1ccc(Br)cc1)N1CCC2(CC1)OCCN2S(=O)(=O)c1ccc(Br)cc1 [Compound C0025]  80.2%
10. NS(=O)(=O)c1ccc(S(=O)(=O)N2CCC3(CC2)OCCN3S(=O)(=O)c2ccc(S(N)(=O)=O)cc2)cc1 [Compound C0034]  80.1%
11. COC(=O)c1ccc(S(=O)(=O)N2CCC3(CC2)OCCN3S(=O)(=O)c2ccc(C(=O)OC)cc2)cc1 [Compound C0028]  78.4%
12. CNc1ccc(S(=O)(=O)N2CCC3(CC2)OCCN3S(=O)(=O)c2ccc(NC)cc2)cc1 [Compound C0024]  59.3%
13. COc1ccc(C(=O)N2CCOC23CCN(S(=O)(=O)c2ccc(OC)cc2)CC3)cc1 [Compound C0019]  52.8%
14. O=S(=O)(c1ccc(F)cc1)N1CCC2(CC1)OCCN2S(=O)(=O)c1ccc(F)cc1 [Compound C0029]  16.6%

Same assay, conditions: 1 μM compound, striatal membranes

In order of falling “MOR agonist activity, [35S]GTPγS binding to Gαo, FLNA-binding compound as agonist 1 μM” value:
1. O=S(=O)(c1ccc(Br)cc1)N1CCC2(CC1)OCCN2S(=O)(=O)c1ccc(Br)cc1 [Compound C0025]  320.7%
2. O=S(=O)(c1ccc(F)cc1)N1CCC2(CC1)OCCN2S(=O)(=O)c1ccc(F)cc1 [Compound C0029]  308.8%
3. COc1ccc(C(=O)N2CCC3(CC2)OCCN3C(=O)c2ccc(OC)cc2)cc1 [Compound C0017]  284.5%
4. O=C(OCc1ccccc1)c1ccc(S(=O)(=O)N2CCC3(CC2)OCCN3S(=O)(=O)c2ccc(C(=O)OCc3ccccc3)cc2)cc1 [Compound C0042]  260.9%
5. COc1ccc(C(=O)N2CCC3(CC2)OCCN3S(=O)(=O)c2ccc(OC)cc2)cc1 [Compound C0018]  247.7%
6. COc1ccc(S(=O)(=O)N2CCC3(CC2)OCCN3S(=O)(=O)c2ccc(C(C)=O)cc2)cc1 [Compound C0048]  245.3%
7. COc1ccc(NC(=O)N2CCC3(CC2)OCCN3S(=O)(=O)c2ccc(OC)cc2)cc1 [Compound C0041]  244.4%
8. O=S(=O)(c1ccccc1)N1CCC2(CC1)OCCN2S(=O)(=O)c1ccccc1 [Compound C0016]  230.5%
9. CNc1ccc(S(=O)(=O)N2CCC3(CC2)OCCN3S(=O)(=O)c2ccc(NC)cc2)cc1 [Compound C0024]  229.6%
10. CCCCc1ccc(S(=O)(=O)N2CCC3(CC2)OCCN3S(=O)(=O)c2ccc(CCCC)cc2)cc1 [Compound C0030]  226.8%
11. O=C(c1ccc([N+](=O)[O-])cc1)N1CCC2(CC1)OCCN2C(=O)c1ccc([N+](=O)[O-])cc1 [Compound C0032]  202.0%
12. COc1ccc(C(=O)N2CCOC23CCN(S(=O)(=O)c2ccc(OC)cc2)CC3)cc1 [Compound C0019]  176.6%
13. NS(=O)(=O)c1ccc(S(=O)(=O)N2CCC3(CC2)OCCN3S(=O)(=O)c2ccc(S(N)(=O)=O)cc2)cc1 [Compound C0034]  167.9%
14. COC(=O)c1ccc(S(=O)(=O)N2CCC3(CC2)OCCN3S(=O)(=O)c2ccc(C(=O)OC)cc2)cc1 [Compound C0028]  132.4%
